In US4746678A, “Phenanthrene derivatives” (EGIS Gyoryszergyar, priority 1985, dated 1988):

Experiments:
wheat powdery mildew = experiment: in vivo test against wheat powdery mildew; design: species or system "MV-4" wheat (host plant); details: identical test conditions
Method: In vivo tests are carried out against cereals powdery mildew.
In vivo activity is tested against wheat powdery mildew in a phytobox of the Conviron type, at 20° C., a relative humidity of 90% and a light intensity of 9000 lux. As host plant the elite propagating seed grain material of officially qualified "MV-4" wheat species is used. Wheat plants are cultivated in 6 days' periods, in cultivating dishes (diameter 11 cm) containing a 1:1 mixture of sand and perlite. Each dish contains 160 plants; at the beginning of the treatment the plants were 5-6 cm high. High dispersity grade aqueous suspensions or acetonic solutions of the test compound are prepared and 8 ml of each suspension or solution, respectively, are applied onto the plants by means of a spraying apparatus operated by gaseous nitrogen. Inoculation is carried out 24 days after the fungicidal treatment. The test units are placed in three replicates and in random block arrangement in the phytotron. The rate of infectedness is determined on the 8th day after inoculation. Numerical evaluation is accomplished on the basis of the method described by Hinfner and Papp by observing separately 50-60 plants.
The results are expressed as ED50 and ED90 values of the test compounds being calculated from the co-relation of effect and concentration by means of mathematical-biometrical methods. […]

[1] = test system: bean rust (Uromyces apperdiculatus); experiment: in vivo test on "pinto" bean against bean rust; design: species or system "pinto" bean (host plant); details: spray at a concentration of 500 ppm; symptoms 7-8 days after infection
Method: A further test is carried out on "pinto" bean species against bean rust (Uromyces apperdiculatus). Into each cultivating dish three seeds are sown in a 1:1:0.035 mixture of sand, perlite and super compost. Two-leave staged bean plants subjected to 7-9 days' glass house pre-cultivation are treated with the test compound and the treated plants are inoculated. The concentration of the spore suspension amounts to 0.1 g/10 ml and 2.5 ml of spore suspension are used for each cultivating dish. After inoculation the plants are incubated at 20° C. under a relative moisture content of 100% for 48 hours. The symptoms manifest themselves 7-8 days after infection. Three replicates are used; untreated control treatment is also carried out and the commercial product "Dithane M 45" serves as reference.

| Compound | activity relative to the most efficient novel compounds (products of Examples 7 and 8) (wheat powdery mildew) | inhibition of bean rust infection [1] [%] |
| --- | --- | --- |
| CCCCNC(=O)n1c(NC(=O)OC)nc2ccccc21 [Reference compound, methyl-1-(n-butylcarbamoyl)-2-benzimidazole-carbamate] | lower activity | – |
| CCCCNC(=O)ON=C1C(=O)c2ccccc2-c2ccccc21 [Example 7, 9,10-phenanthrene-dione-9-(n-butyl-aminocarbonyl)-oxime] | – | 100 |
| CNC(=O)ON=C1C(=O)c2ccccc2-c2ccccc21 [Example 8, 9,10-Phenanthrene-dione-9-(methylaminocarbonyl)-oxime] | – | 100 |
| C/C=C/C(=O)Oc1c(C(C)CCCCCC)cc([N+](=O)[O-])cc1[N+](=O)[O-] (stereo not shown) [6-(1-methyl-heptyl-2,4-dinitro-phenyl-crotonate)] | lower activity | – |
